Columns and labels:
[1] = molecular target: T1, BACE1 (beta-secretase 1) (Homo sapiens, UniProt P56817); experiment: SPR (Biacore T200, steady-state affinity); format: binding
T1 construct: commercial BACE1 enzyme (Sigma); amine-coupled on CM5 chip for SPR, free enzyme in FRET assay

[2] = molecular target: T2, Aβ1-42 (amyloid-β1-42) oligomer (Homo sapiens, UniProt P05067); experiment: SPR (Biacore T200, steady-state affinity); format: binding
T2 construct: gene APP; commercial 42-residue peptide (Sigma), cut from amyloid precursor protein (APP residues 672-713); oligomer, amine-coupled on CM5 chip

[3] = molecular target: T1, BACE1 (beta-secretase 1); experiment: FRET substrate cleavage assay (Sigma kit); format: biochemical

T1 sequence (P56817 46-501): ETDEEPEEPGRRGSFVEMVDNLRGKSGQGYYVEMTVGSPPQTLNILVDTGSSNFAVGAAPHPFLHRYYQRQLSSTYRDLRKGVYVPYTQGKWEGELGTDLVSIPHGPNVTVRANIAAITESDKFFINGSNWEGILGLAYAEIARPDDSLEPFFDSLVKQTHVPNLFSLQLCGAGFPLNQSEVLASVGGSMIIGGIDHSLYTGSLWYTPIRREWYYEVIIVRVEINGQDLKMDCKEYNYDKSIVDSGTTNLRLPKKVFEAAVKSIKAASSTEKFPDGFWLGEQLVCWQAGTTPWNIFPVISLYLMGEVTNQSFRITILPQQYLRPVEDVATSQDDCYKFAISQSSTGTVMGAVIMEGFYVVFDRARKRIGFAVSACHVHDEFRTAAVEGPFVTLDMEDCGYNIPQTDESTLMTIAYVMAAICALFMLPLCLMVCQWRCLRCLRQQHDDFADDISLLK
T2 sequence (P05067 672-713): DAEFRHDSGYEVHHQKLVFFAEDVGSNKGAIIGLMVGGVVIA

## COc1ccc2cc3[n+](cc2c1OC)CCc1cc2c(cc1-3)OCO2 [berberine]
[1]
  Kd: 1260 nM
[2]
  Kd: 1490 nM
[3]
  IC50: 63000 nM
